Measurements: US11759455B2, “Substituted 1H-imidazo[4,5-b]pyridin-2(3H)-ones and their use as GLUN2B receptor modulators” (JANSSEN PHARMACEUTICA NV, priority 2016, dated 2023)
Where two headings read alike, the source gives them in different places.

Target: T1, human GluN1/GluN2B NMDA receptors (Homo sapiens, UniProt Q13224)
T1 construct: expressed in transfected cells
Assay: Cell-based calcium flux (FLIPR) assay on cloned human NR1/NR2B ion channels expressed in mammalian cells (standard and HTS buffer variants);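 also: stable Tet-On inducible cell line, Ca2+ influx triggered by glutamate at about EC40 plus 10 µM glycine, fluorescent dye read-out over 5 min, normalized to control wells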
Conditions: human GluN1/GluN2B cells

[1] = standard assay buffer (0.5 mM MgCl2 dye loading; 137 mM NaCl, 4 mM KCl assay buffer), read-out: NR2B IC50 (μM) standard assay

T1 sequence (Q13224 27-1484, other chains not shown): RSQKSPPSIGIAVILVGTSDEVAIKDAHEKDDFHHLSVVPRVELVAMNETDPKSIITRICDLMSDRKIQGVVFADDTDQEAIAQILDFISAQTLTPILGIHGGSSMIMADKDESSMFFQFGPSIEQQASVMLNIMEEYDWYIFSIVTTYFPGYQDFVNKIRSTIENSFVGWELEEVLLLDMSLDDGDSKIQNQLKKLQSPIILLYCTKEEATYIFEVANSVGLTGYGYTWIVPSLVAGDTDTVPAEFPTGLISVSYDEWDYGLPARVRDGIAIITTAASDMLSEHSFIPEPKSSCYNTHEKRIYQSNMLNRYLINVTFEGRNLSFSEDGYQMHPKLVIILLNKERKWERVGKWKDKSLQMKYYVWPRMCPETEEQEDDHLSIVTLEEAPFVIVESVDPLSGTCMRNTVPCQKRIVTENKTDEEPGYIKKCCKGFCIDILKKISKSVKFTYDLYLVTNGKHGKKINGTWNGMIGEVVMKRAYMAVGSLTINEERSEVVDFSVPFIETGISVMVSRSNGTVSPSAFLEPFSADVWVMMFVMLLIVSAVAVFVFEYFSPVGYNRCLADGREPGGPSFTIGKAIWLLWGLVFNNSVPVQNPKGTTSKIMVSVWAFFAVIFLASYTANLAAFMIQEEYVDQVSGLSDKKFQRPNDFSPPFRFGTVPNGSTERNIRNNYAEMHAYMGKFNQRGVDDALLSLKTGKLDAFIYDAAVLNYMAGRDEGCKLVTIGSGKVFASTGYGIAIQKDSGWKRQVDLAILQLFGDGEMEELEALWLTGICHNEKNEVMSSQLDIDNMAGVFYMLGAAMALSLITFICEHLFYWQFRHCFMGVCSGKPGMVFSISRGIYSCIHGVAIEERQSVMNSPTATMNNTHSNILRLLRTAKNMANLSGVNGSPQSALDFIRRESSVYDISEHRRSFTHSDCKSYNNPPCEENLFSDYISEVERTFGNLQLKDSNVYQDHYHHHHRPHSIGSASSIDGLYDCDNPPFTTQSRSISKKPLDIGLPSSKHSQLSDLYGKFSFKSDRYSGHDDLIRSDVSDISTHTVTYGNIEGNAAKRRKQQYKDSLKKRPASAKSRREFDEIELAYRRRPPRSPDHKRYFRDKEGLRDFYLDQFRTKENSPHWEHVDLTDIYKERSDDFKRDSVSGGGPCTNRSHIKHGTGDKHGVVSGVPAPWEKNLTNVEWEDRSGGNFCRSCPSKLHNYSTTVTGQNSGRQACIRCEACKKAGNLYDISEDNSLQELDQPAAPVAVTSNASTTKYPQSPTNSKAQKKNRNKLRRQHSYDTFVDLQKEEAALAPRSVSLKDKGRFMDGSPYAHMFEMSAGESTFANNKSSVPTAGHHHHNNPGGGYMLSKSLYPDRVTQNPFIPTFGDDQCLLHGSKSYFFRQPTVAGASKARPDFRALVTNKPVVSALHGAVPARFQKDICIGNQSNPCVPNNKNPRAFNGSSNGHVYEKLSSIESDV

Structure (SMILES)	IC50 [1] [µM]	IC50 (HTS assay buffer (1.5 mM MgCl2 dye loading; 150 mM NaCl, 3 mM KCl assay buffer), read-out: NR2B IC50 (μM) HTS assay) [µM]
COCCn1c(=O)[nH]c2ncc(-c3ccc(F)cc3C)cc21 [Example 2, 6-(4-Fluoro-2-methyl-phenyl)-1-(2-methoxyethyl)-3H-imidazo[4,5-b]pyridin-2-one]	–	2.06
CN(C)C(=O)Cn1c(=O)n(C)c2ncc(-c3ccc(Cl)s3)cc21 [Example 9, 2-[6-(5-Chloro-2-thienyl)-3-methyl-2-oxo-imidazo[4,5-b]pyridin-1-yl]-N,N-dimethyl-acetamide]	0.005	–
Cc1cc(Cn2c(=O)[nH]c3ncc(-c4ccccc4)cc32)no1 [Example 11, 1-[(5-Methylisoxazol-3-yl)methyl]-6-phenyl-3H-imidazo[4,5-b]pyridin-2-one]	0.088	–
Cc1nnc(Cn2c(=O)[nH]c3ncc(-c4ccc(F)cc4)cc32)o1 [Example 13, 6-(4-Fluorophenyl)-1-[(5-methyl-1,3,4-oxadiazol-2-yl)methyl]-3H-imidazo[4,5-b]pyridin-2-one]	0.076	–
Cc1csc(-c2cnc3c(c2)n(Cc2cc(C)on2)c(=O)n3C)c1 [Example 14, 3-Methyl-1-[(5-methylisoxazol-3-yl)methyl]-6-(4-methyl-2-thienyl)imidazo[4,5-b]pyridin-2-one]	0.097	–
Cn1cc(Cn2c(=O)[nH]c3ncc(-c4ccc(F)cc4)cc32)cn1 [Example 15, 6-(4-Fluorophenyl)-1-[(1-methylpyrazol-4-yl)methyl]-3H-imidazo[4,5-b]pyridin-2-one]	0.204	–
O=c1[nH]c2ncc(-c3cccc(C(F)(F)F)c3)cc2n1CCN1CCC1 [Example 17, 1-[2-(Azetidin-1-yl)ethyl]-6-[3-(trifluoromethyl)phenyl]-3H-imidazo[4,5-b]pyridin-2-one]	0.146	–
Cn1c(=O)n(CCN2CCC2)c2cc(-c3cccc(C(F)(F)F)c3)cnc21 [Example 18, 1-[2-(Azetidin-1-yl)ethyl]-3-methyl-6-[3-(trifluoromethyl)phenyl]imidazo[4,5-b]pyridin-2-one]	0.7	–

More lines, in order of falling IC50 [1], values ahead:

IC50 [1] [µM]	IC50 (HTS assay buffer (1.5 mM MgCl2 dye loading; 150 mM NaCl, 3 mM KCl assay buffer), read-out: NR2B IC50 (μM) HTS assay) [µM]	Structure (SMILES)
8.9	–	Cc1cc(Cn2c(=O)[nH]c3ncc(-c4ccc(F)cc4)cc32)nn1C [Example 16, 1-[(1,5-Dimethylpyrazol-3-yl)methyl]-6-(4-fluorophenyl)-3H-imidazo[4,5-b]pyridin-2-one]
6.77	–	Cn1c(=O)n(Cc2ccncn2)c2cc(-c3cccc(F)c3)cnc21 [Example 7, 6-(3-Fluorophenyl)-3-methyl-1-(pyrimidin-4-ylmethyl)imidazo[4,5-b]pyridin-2-one]
2.74	–	COc1ccc(-c2cnc3[nH]c(=O)n(CC(=O)N4CCOCC4)c3c2)cc1 [Example 1, 6-(4-Methoxyphenyl)-1-(2-morpholino-2-oxo-ethyl)-3H-imidazo[4,5-b]pyridin-2-one]
0.104	–	Cc1cc(Cn2c(=O)n(C)c3ncc(-c4ccc(F)c(F)c4)cc32)no1 [Example 8, 6-(3,4-Difluorophenyl)-3-methyl-1-[(5-methylisoxazol-3-yl)methyl]imidazo[4,5-b]pyridin-2-one]
0.088	–	CCNC(=O)Cn1c(=O)[nH]c2ncc(-c3ccc(F)cc3C)cc21 [Example 3, N-Ethyl-2-[6-(4-fluoro-2-methyl-phenyl)-2-oxo-3H-imidazo[4,5-b]pyridin-1-yl]acetamide]
0.048	–	Cc1cc(-c2cnc3c(c2)n(Cc2ccccn2)c(=O)n3C)ccc1F [Example 6, 6-(4-Fluoro-3-methyl-phenyl)-3-methyl-1-(2-pyridylmethyl)imidazo[4,5-b]pyridin-2-one]
0.029	–	Cc1cc(Cn2c(=O)[nH]c3ncc(-c4ccc(F)cc4)cc32)no1 [Example 12, 6-(4-Fluorophenyl)-1-[(5-methylisoxazol-3-yl)methyl]-3H-imidazo[4,5-b]pyridin-2-one]
0.01	–	Cn1c(=O)n(CC(=O)N2CC(F)C2)c2cc(-c3ccc(C(F)F)s3)cnc21 [Example 10, 6-[5-(Difluoromethyl)-2-thienyl]-1-[2-(3-fluoroazetidin-1-yl)-2-oxo-ethyl]-3-methyl-imidazo[4,5-b]pyridin-2-one]
